The values that follow come from BindingDB's records for patent US20250026766 (Beigene, 2025).

The target of this assay is T1, DNA polymerase theta [1-894] (UniProt O75417).
T1 construct: 1-894
Description: Biochemical Pol Theta (1-894) ATPase IC50 Assay. Here is the method:
The inhibition activities testing for the compound disclosed herein were carried out at room temperature in assay buffer containing 40 mM Tris pH 7.5, 20 mM MgCl2, 1 mM DTT, 0.01% BSA and 0.05% Tween-20. […] After 1 hour reaction, 5 μL ADP-Glo reagent (Promga V9102) was added and incubated for 40 minutes. 10 μL Kinase Detection reagent was added and incubated for 40 minutes. Luminescence was measured on a microplate reader (PHERAstar FSX, BMG labtech). The IC50 values were calculated based on inhibition of enzyme activity in the presence of increasing concentrations of compounds.

What is called IC50 is the point on the concentration scale where inhibition reaches its midpoint. Lower therefore signals greater potency in that assay.

T1 sequence (O75417 1-894): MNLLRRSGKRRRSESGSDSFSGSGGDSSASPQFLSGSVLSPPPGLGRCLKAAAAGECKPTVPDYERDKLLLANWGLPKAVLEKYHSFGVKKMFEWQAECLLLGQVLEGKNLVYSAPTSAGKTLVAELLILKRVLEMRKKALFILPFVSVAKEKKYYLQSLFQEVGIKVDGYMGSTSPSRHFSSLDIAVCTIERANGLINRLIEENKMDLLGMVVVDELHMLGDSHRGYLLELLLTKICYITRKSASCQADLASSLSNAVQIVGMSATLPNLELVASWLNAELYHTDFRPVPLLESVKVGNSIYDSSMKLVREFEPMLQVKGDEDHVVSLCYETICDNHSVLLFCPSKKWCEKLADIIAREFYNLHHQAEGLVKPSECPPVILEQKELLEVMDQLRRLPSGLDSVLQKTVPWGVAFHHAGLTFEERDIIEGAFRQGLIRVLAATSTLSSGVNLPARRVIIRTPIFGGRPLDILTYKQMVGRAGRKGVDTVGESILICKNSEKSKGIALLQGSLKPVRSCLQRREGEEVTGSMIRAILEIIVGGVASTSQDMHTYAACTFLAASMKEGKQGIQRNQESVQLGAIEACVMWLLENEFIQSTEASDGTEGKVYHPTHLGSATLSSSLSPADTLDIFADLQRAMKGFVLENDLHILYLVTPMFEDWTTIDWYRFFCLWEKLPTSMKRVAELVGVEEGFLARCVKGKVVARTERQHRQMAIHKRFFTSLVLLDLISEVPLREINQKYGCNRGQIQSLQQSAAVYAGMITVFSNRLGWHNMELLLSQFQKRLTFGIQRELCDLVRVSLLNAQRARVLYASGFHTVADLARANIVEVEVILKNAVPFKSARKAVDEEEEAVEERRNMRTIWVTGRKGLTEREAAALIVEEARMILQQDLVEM

As for `COc1ccccc1-c1cnncc1C(=O)Nc1nc2ccc(-c3ccc(Cl)cc3OC(C)C)nc2s1` [US20250026766, Example 143], half-maximal inhibition (IC50) was put at 22 nM.
Compound `Cc1ccc(-c2ccc3nc(NC(=O)c4ccc(C#N)nc4N4CCOCC4)sc3n2)cc1` [US20250026766, Example 4] had an IC50 of 1560 nM.
